This assay has as its system MBP-specific T lymphocyte cell lines migrating across rat brain endothelial cell monolayer. The assay can be described thus: Inhibition of T-lymphocyte migration across rat brain endothelial cell layer (Transwell, 51Cr-labeled cells). The settings on record: Rattus norvegicus, T-cell; 10 mM in upper well; 6 hours; compared with negative control; read-out: % inhibition (±SEM) of T cell migration. The class given is cell-based, Lewis rats. As for the experimental part: Preparation of Brain Endothelial Cells (ECs)
Vascular ECs were isolated from rat brain capillaries of 6 to 8 week old Lewis rats according to the method of Risau, W et al., 1990, J. Cell Biol. 110:1757-1766 (which is incorporated herein by reference). Colonies of ECs were purified from astroglial cells and pericytes using anti-Thy1.1-antibody and complement-mediated lysis to remove unwanted Thy1.1+ cells.
The EC colonies were grown, using conventional methods, in Dulbecco's Modified Eagle's Medium (DMEM)-high glucose, supplemented, with 20% fetal calf serum (FCS), glutamine, pyruvate, nonessential amino acids, HEPES buffer and antibiotics (kanamycin, amphotericin), and heparin (all from GIBCO). Cultures were supplemented with 150 μg/ml “endothelial growth supplement” from Collaborative Biomedical Products. Upon reaching confluence, EC cultures were washed with 0.2% EDTA in phosphate buffered saline (PBS), trypsinized (Trypsin-EDTA, 0.1% final concentration), washed and re-treated with anti-Thy1.1 antibody for 40 min, washed and incubated with complement sufficient to lyse all Thy1.1+ cells (Behringwerke, AG, Marburg, Germany) at room temperature.
ECs were then plated on Matrigel®-coated 6.5 mm Transwells, […] (Corning Costar Corporation, Cambridge, Mass.). Presence of ECs and confluence of the monolayer were checked by measuring the electrical resistance (World Precision Instruments, New Haven, U.S.A., model EVOM-G) and by staining with FITC-labeled phalloidin (Sigma).
Myelin Basic Protein (MBP)-Specific T Cell Lines
To study the effect of agents of the present invention on T lymphocyte migration, MBP-specific T lymphocyte cell lines were generated according to the method of Ben-Nun et al., Europ. J. Immunol. 11:195-199 (1981); incorporated herein by reference) starting with lymphocytes from the LNs of Lewis rats that had been immunized with MBP in complete Freund's adjuvant (CFA). These cells were used for migration studies during the first 4 days of their propagation in IL-2-containing medium, following MBP restimulation in the presence of antigen-presenting cells (irradiated spleen or thymus cells from normal Lewis rats).
These stimulated T lymphocytes were radiolabeled with ^51Cr (Na^51Cr04, 37 MBq/ml, Amersham, UK) for 30 minutes at 37° C. with occasional agitation, they were then washed three times with DMEM and placed into the upper chamber of the Transwells at 5×10^5 cells in 100 μl of “migration medium.” Test and control substance were included in the upper wells at final concentrations of 0.1, 1 and 10 mM. Cell migration was assessed visually by light microscopy to gauge progress of the experiment. The experiment was terminated after 6 hours, whereupon the undersurface of the membrane filters were rinsed twice with 100 μl of ice-cold PBS-0.2% EDTA and combined with the medium of the lower chamber of the well. The combined material was counted for radioactivity in a gamma counter (Packard Auto-Gamma 5650 (Downer's Grove Ill., USA) gamma counter. Each “treatment” group was run in triplicate (test agent, control agent (glucose 6-phosphate) and no treatment).
Inhibition values are in comparison with the negative control.

For the molecule `Cc1ccc(O[C@H]2O[C@H](CCP(=O)(O)O)[C@@H](O)[C@H](O)[C@@H]2O)c(C)c1`, the inhibition at 10000 µM is 90 ± 4%.

The values above are taken from patent US7648966B2, “Mannose-6-phosphonate compounds for the treatment of inflammatory diseases” (Pharmaxis Pty Limited, priority 2003, dated 2010).
